Experimental data published in patent US9259409B2, “Compositions comprising a prostaglandin for treating neuropsychiatric conditions” (Inceptum Research & Therapeutics, Inc., priority 2011, dated 2016).

How the values were obtained:
GSK-3 [1] = experiment: Cytoplasmic β-catenin stabilization in HEK293T cells (Western blot); format: cell-based, human; settings: 10 μM, vs DMSO-treated cells
Description: Human embryonic kidney 293T (HEK293T) cells, U87MG astrocytoma and the human oligodendrocyte cell line MO3-13 were grown in Dubelco Minimal Eagle Media (DMEM) (Invitrogen, Carlsbad, Calif., USA) supplemented with 5% heat inactivated fetal bovine serum. Cells were grown to 70% confluence prior to treatment. […] Cells were exposed to drug for 3 hours at 37° C. in a 5% CO2 incubator. U87MG cells were grown to 70% confluence prior to treatment. Cells were treated with either DMSO vehicle (NT) or individually with 1, 5 and 10 μM latanoprost in DMEM lacking fetal bovine serum. Cells were exposed to treatments for 6 hours at 37° C. in a 5% CO2 incubator. The human oligodendrocyte cell line MO3-13 was grown and differentiated according to the methods described in McLaurin et al. (McLaurin, J., Trudel, G. C., Shaw, I. T., Antel, J. P., and Cashman, N. R., J. Neurobiol., 26: 283-293, 1995). On the third day of serum starvation, cells were treated with either DMSO vehicle (NT) or individually with 1, 5 and 10 μM latanoprost. Cells were exposed to treatments for 6 hours at 37° C. in a 5% CO2 incubator.
For detection of CREB and Serine-133 (S133)-phosphorylated CREB, serotonin receptor 5HT2A, TCF/LEF1, BDNF and TNF-total protein extracts were prepared from cell cultures using a sintered glass tissue homogenizer (Wheaton, Millville, N.J., USA) in phosphate-buffered saline (PBS), pH 7.5, 3M urea. For detection of β-catenin, cell cultures were washed with PBS, trypsinized, and pelleted at 1,000 rpm for 4 minutes. The cell pellets were washed and resuspended in cold hypotonic buffer consisting of 10 mM HEPES (pH 7.5), 1.5 mM MgCl2, 10 mM KCl, 0.5 mM DTT, and EDTA-free protease inhibitor (Roche, Laval, QC, Canada) in an ice bath for 5 minutes. The mixture was then homogenized using a dounce homogenizer and the cellular debris was pelleted by centrifugation at 4° C. Cytoplasmic fractions were recovered and used for assaying β-catenin.
Protein concentrations were determined by the Peterson method (Peterson, Analyt. Biochem., 83: 346-356, 1977). […]

GSK-3 [2] = experiment: Distalless (Dll) expression in Drosophila wing imaginal discs as assay of GSK-3 function; format: cell-based; settings: 1 mM; Dll lacZ; vs DMSO

Row | SMILES | levels of cytoplasmic β-catenin (GSK-3 [1]) | Dll expression in wing imaginal discs (GSK-3 [2])
1 | CCCCC[C@H](O)/C=C/[C@H]1[C@H](O)CC(=O)[C@@H]1C/C=C\CCCC(=O)O [PGE2, (Z)-7-[(1R,2R,3R)-3-hydroxy-2-[(E)-(3S)-3-hydroxy-1-octenyl]-5-oxo-cyclopentyl]-hept-5-enoic acid] | increased levels of cytoplasmic β-catenin | 
2 | CCCCC[C@H](O)/C=C/[C@@H]1[C@@H](C/C=C\CCCC(=O)O)[C@@H](O)C[C@H]1O [PGF2α, (Z)-7-[(1R,2R,3R,5S)-3,5-dihydroxy-2-[(E)-(3S)-3-hydroxy-1-octenyl]-cyclopentyl]-5-heptenoic acid] | increased levels of cytoplasmic β-catenin | 
3 | CCCC(CCC)C(=O)O [valproate] |  | activation of Dll expression
